Laboratory results as given in ChEMBL document CHEMBL1201862, “PubChem BioAssay data set” (2004).
Calls of active or inactive are those of the source.

Experiments:
Keap1/Nrf2 = Keap1/Nrf2 (Homo sapiens, UniProt Q14145); assay: Keap1-Nrf2 protein-protein interaction inhibitors, dose response, biochemical, fluorescence polarization, cherry-picked samples (AID 588683)
HeLa = assay: HeLa cell cytotoxicity, dose response, cytotoxicity control, 24 h, cherry-picked samples (AID 504726); type: functional, cell-based; conditions: Homo sapiens;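 also: potency for cytotoxicity as loss of luminescence signal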
[1] = molecular target: T1, Small ubiquitin-related modifier 1 (Homo sapiens, UniProt P63165); assay: inhibitors of SUMO1 peptide binding, dose response, biochemical, fluorescence polarization, uHTS hits (AID 624382); type: functional; conditions: read-out: IC50_Mean
T1 sequence (P63165 whole entry): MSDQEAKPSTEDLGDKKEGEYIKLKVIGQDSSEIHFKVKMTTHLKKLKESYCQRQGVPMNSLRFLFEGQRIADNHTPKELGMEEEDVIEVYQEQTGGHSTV

[2] = molecular target: Eukaryotic translation initiation factor 4E (Mus musculus, UniProt P63073); assay: eIF4E–eIF4G protein interaction inhibitors, dose response, biochemical, TR-FRET (AID 855); type: functional;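 also: potency for disrupting eIF4E binding to eIF4GI seen as loss of FRET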
Sequence of Eukaryotic translation initiation factor 4E (P63073 whole entry): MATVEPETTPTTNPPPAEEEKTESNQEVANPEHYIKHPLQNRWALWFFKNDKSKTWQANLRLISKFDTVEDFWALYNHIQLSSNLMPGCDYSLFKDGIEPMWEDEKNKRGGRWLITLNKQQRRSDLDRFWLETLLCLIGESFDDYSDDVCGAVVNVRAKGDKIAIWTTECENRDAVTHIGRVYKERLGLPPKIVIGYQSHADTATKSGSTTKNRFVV

ORF 73 = molecular target: T2, ORF 73 (Human herpesvirus 8, UniProt O40947); assay: inhibitors of C-LANA binding to LBS DNA, dose response, biochemical, fluorescence polarization, cherry-picked samples (AID 504725); design: species or system Human gammaherpesvirus 8;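 also: fluorescence polarization of a labeled DNA duplex reporting LANA DNA binding; potency is for inhibitors that block LANA binding to the DNA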
T2 sequence (O40947 whole entry): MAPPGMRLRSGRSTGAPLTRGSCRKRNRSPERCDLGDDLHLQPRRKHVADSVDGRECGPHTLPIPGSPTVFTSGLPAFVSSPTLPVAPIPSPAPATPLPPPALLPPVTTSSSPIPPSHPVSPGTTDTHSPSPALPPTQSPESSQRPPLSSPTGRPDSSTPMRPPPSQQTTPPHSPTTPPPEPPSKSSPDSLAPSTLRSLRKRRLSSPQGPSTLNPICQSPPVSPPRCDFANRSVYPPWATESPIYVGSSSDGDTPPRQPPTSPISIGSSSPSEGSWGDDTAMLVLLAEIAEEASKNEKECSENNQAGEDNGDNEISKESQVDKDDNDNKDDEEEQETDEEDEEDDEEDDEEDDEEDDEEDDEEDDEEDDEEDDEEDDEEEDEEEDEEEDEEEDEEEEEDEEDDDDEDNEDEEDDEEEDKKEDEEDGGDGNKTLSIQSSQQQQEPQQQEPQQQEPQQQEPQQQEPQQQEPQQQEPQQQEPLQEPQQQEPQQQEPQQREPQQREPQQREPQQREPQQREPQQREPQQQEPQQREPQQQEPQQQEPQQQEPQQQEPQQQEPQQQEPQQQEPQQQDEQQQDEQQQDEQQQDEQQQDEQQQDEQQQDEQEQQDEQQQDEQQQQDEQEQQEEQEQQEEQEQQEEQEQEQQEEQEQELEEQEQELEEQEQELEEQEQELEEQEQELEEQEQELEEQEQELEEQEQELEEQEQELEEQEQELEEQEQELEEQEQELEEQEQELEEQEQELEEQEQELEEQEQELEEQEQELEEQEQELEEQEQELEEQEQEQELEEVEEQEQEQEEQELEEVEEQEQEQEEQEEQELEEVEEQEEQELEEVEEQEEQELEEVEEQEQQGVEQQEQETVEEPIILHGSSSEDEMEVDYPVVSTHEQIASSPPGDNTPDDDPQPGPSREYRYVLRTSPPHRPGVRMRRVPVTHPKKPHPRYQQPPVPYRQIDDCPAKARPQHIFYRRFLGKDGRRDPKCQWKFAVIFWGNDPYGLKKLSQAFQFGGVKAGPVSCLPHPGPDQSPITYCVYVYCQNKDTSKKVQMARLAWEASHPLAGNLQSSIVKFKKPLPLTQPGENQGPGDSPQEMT

HEK293 [3] = assay: optical interference in Abeta FP readout, dose response, artefact control for IDE activator project, biochemical, fluorescence polarization (AID 588442); type: functional, cell-based; conditions: Homo sapiens
[4] = molecular target: T1, Small ubiquitin-related modifier 1; assay: inhibitors of SUMO1 partner interactions, dose response, biochemical, FRET (AID 624383); type: functional; conditions: read-out: IC50_Mean
Caspase-6 = molecular target: T3, Caspase-6 (Homo sapiens, UniProt P55212); assay: human caspase-6 inhibitors, dose response, biochemical, VEID-R110 fluorescence, cherry-pick (AID 720632)
T3 sequence (P55212 whole entry): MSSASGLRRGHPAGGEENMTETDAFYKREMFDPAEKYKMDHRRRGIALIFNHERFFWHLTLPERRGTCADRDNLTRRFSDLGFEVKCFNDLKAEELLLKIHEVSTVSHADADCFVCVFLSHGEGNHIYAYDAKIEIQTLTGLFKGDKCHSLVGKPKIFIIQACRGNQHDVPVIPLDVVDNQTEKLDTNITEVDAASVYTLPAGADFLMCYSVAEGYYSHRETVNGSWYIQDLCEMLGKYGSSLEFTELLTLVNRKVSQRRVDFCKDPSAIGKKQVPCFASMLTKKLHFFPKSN

[5] = molecular target: T4, Small ubiquitin-related modifier 2 (Homo sapiens, UniProt P61956); assay: inhibitors of SUMO2 protein-protein interaction, dose response, selectivity assay for SUMO1 interaction inhibitor project, biochemical, FRET, human SUMO2, uHTS hits (AID 624384); type: functional; conditions: read-out: IC50_Mean
T4 sequence (P61956 whole entry): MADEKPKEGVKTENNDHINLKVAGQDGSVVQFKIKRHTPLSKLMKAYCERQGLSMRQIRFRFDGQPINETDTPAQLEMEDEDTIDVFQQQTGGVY

[6] = molecular target: T4, Small ubiquitin-related modifier 2; assay: SUMO2–SIM peptide binding inhibitors, dose response, selectivity assay for SUMO1 interaction inhibitor project, biochemical, fluorescence polarization, uHTS hits (AID 624385); type: functional; conditions: read-out: IC50_Mean
Insulin-degrading enzyme [7] = molecular target: T5, Insulin-degrading enzyme (Homo sapiens, UniProt P14735); assay: activators of endogenous IDE in HEK cells, dose response, cell-based, fluorescence polarization (AID 588439); type: functional
T5 sequence (P14735 whole entry): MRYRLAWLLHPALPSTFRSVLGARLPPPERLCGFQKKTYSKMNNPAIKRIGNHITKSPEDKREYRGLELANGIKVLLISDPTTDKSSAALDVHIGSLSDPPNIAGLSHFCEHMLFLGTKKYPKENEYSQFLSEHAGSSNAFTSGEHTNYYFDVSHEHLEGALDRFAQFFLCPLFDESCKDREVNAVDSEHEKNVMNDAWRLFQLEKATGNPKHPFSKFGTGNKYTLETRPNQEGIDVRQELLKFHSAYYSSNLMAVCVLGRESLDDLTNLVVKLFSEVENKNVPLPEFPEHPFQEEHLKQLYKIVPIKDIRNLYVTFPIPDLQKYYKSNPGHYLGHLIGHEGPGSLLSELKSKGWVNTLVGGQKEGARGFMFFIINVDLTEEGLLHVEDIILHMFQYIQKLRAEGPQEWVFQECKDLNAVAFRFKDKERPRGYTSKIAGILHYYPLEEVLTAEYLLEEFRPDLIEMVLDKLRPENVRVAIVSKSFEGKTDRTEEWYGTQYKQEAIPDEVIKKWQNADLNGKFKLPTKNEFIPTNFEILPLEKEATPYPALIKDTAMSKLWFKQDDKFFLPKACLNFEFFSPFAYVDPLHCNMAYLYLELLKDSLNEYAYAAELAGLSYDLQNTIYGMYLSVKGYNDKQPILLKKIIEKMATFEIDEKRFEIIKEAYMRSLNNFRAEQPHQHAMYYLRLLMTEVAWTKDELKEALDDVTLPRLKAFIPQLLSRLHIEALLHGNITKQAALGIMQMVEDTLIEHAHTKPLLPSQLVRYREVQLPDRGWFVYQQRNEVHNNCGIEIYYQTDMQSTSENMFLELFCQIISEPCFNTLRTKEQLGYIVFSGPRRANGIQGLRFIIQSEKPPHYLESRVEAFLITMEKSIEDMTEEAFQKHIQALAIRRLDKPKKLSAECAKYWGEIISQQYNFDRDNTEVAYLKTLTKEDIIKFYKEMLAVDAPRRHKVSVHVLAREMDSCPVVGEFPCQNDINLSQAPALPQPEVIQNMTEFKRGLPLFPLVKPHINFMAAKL

HEK293 [8] = assay: HEK cell cytotoxicity by LDH release, dose response, cytotoxicity control for IDE activator project, fluorescence, HEK cells (AID 588440); type: functional, cell-based; conditions: Homo sapiens;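 also: cytotoxicity by LDH release measuring loss of membrane integrity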
Insulin-degrading enzyme [9] = molecular target: T5, Insulin-degrading enzyme; assay: activators of recombinant IDE enzyme, dose response, counter-screen for IDE activator project, biochemical, fluorescence polarization (AID 588681)
[10] = molecular target: T6, Sentrin-specific protease 1 (Homo sapiens, UniProt Q9P0U3); assay: potency of human SENP1 inhibitors, dose response, biochemical, kinetic FRET (AID 651697); type: functional; conditions: read-out: IC50_Mean
T6 sequence (Q9P0U3 whole entry): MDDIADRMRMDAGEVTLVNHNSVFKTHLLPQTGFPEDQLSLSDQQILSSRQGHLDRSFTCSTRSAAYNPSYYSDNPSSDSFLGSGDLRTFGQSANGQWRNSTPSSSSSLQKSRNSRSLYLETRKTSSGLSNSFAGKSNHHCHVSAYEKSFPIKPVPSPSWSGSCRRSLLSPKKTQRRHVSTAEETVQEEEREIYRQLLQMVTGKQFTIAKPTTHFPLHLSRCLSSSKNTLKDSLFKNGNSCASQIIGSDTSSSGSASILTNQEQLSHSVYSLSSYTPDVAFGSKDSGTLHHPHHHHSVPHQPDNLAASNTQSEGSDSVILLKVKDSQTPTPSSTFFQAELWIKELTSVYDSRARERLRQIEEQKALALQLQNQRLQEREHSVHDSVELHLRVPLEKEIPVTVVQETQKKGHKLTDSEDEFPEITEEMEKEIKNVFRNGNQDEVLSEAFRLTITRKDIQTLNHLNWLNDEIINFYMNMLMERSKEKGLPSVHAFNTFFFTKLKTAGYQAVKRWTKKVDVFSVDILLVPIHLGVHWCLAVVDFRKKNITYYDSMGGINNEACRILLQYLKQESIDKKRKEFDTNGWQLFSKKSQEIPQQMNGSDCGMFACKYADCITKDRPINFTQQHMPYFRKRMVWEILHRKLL

[11] = molecular target: T7, DNA repair and recombination protein RAD54-like (Homo sapiens, UniProt Q92698); assay: inhibitors of human RAD54 branch migration, confirmation, biochemical, fluorescence, cherry-picked samples, dose series (AID 651657); type: functional
T7 sequence (Q92698 whole entry): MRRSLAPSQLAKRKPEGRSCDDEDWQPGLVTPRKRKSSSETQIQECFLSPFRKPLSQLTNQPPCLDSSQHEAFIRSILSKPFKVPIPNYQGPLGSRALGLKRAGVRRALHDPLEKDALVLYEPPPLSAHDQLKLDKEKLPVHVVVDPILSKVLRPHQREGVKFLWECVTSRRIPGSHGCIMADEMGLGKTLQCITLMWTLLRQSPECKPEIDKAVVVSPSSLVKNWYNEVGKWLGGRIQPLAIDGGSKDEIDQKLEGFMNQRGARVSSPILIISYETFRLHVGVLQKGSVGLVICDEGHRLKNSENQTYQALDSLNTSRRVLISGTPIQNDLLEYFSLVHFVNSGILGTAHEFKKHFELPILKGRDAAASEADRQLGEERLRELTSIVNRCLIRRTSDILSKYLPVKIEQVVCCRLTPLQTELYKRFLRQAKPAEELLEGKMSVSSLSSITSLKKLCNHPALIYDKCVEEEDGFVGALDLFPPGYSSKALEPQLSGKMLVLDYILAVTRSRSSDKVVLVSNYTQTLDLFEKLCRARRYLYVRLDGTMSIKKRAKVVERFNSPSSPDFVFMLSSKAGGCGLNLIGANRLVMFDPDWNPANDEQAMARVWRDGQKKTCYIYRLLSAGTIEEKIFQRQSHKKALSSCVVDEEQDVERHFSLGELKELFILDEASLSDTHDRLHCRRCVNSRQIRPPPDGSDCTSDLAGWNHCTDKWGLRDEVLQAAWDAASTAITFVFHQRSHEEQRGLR

[12] = molecular target: SWI/SNF-related matrix-associated actin-dependent regulator of chromatin subfamily A member 2 (Homo sapiens, UniProt P51531); assay: Luminescence-based cell-based high throughput dose response assay to identify activators of the function of SWI/SNF related, matrix associated, actin dependent regulator of chromatin, subfamily a, member 2 (SMARCA2, BRM).; type: functional
Sequence of SWI/SNF-related matrix-associated actin-dependent regulator of chromatin subfamily A member 2 (P51531 whole entry, the tested form may be a part): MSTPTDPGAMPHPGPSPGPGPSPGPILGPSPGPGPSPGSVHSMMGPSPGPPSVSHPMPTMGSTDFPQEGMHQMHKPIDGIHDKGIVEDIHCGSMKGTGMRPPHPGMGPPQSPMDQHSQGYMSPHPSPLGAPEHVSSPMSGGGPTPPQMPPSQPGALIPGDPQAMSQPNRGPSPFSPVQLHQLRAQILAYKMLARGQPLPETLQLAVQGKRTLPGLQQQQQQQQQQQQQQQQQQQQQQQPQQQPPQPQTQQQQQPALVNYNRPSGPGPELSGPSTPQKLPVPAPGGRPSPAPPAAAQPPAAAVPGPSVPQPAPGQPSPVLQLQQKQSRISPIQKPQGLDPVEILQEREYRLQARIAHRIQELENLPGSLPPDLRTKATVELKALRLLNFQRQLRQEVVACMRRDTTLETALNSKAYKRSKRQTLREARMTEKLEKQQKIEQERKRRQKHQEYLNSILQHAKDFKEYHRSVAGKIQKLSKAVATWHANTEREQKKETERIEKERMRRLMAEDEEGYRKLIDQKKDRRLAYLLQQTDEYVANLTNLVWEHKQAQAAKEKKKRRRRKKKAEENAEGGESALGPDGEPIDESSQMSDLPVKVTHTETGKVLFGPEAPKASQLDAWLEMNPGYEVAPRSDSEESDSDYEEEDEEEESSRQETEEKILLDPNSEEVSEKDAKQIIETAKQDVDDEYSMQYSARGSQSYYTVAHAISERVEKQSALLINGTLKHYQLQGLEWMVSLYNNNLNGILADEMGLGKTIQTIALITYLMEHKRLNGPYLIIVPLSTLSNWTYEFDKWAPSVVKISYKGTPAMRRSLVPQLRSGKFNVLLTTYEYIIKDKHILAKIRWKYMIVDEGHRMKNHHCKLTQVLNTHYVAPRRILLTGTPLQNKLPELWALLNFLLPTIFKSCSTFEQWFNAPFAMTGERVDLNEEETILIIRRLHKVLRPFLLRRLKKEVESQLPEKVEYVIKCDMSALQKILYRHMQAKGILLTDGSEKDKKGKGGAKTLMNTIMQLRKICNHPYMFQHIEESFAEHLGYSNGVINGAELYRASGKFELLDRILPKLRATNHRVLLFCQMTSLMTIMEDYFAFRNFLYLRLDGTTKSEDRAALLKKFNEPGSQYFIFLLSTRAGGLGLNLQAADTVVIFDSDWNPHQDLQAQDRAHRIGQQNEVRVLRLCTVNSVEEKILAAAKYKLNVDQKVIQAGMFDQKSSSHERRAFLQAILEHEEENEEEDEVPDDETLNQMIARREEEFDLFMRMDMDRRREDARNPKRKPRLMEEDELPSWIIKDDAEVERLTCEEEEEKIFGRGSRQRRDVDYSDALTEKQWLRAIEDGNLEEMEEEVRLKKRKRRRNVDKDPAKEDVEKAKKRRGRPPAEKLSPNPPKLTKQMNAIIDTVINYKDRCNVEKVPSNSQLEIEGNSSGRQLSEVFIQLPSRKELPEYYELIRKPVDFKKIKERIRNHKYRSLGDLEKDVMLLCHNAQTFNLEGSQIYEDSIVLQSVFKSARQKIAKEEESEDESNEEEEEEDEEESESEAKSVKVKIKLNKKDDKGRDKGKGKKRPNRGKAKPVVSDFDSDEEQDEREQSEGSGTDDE

[13] = molecular target: T6, Sentrin-specific protease 1; assay: Dose response confirmation of small molecule inhibitors of the catalytic domain of the SUMO protease, SENP1 in a FRET assay.; type: functional; conditions: read-out: IC50_Mean
[14] = Counterscreen for activators of the function of SWI/SNF related, matrix associated, actin dependent regulator of chromatin, subfamily a, member 2 (SMARCA2, BRM): Luminescence-based cell-based high throughput dose response assay to identify non-selective compounds using the VP16 reporter assay.; type: functional
Vero = assay: cells; type: functional, Chlorocebus sabaeus; conditions: Chlorocebus sabaeus, Vero
[15] = DNA binding of candidate compounds, dose response, artefact control for RAD54 inhibitor project, biochemical, fluorescence polarization, cherry-pick (AID 651673); type: functional
[16] = molecular target: T8, DNA repair protein RAD52 homolog (Homo sapiens, UniProt P43351); type: functional, biochemical
T8 sequence (P43351 whole entry): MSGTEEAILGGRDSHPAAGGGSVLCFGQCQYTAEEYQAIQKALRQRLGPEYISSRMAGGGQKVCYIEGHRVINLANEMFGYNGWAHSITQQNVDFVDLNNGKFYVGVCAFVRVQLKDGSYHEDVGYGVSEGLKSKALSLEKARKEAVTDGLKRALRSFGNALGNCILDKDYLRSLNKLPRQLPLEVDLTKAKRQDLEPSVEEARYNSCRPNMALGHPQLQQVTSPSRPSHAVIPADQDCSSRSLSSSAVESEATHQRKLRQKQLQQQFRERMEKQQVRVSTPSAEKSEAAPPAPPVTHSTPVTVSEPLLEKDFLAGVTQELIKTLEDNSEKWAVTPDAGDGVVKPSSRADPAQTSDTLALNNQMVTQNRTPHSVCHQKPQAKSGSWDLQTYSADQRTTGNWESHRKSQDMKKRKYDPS

Sequence of Keap1/Nrf2 (Q16236 whole entry): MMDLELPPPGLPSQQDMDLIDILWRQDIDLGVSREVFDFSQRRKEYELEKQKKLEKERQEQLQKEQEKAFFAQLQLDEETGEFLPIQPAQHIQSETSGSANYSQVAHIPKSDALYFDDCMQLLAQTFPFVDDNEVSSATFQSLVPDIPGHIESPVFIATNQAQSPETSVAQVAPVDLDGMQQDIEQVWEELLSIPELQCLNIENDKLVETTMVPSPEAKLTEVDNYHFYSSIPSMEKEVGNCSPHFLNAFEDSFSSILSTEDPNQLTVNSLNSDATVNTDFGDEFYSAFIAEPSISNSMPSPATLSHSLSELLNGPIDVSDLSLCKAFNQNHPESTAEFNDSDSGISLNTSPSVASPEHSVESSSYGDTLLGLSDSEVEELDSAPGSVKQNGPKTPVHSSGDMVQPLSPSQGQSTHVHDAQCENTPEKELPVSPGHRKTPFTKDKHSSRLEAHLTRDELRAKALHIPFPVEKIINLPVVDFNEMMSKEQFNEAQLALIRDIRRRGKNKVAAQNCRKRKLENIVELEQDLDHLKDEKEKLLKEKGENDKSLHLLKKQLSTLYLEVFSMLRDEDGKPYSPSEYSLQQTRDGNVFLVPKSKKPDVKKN
Sequence of Keap1/Nrf2 (Q14145 whole entry): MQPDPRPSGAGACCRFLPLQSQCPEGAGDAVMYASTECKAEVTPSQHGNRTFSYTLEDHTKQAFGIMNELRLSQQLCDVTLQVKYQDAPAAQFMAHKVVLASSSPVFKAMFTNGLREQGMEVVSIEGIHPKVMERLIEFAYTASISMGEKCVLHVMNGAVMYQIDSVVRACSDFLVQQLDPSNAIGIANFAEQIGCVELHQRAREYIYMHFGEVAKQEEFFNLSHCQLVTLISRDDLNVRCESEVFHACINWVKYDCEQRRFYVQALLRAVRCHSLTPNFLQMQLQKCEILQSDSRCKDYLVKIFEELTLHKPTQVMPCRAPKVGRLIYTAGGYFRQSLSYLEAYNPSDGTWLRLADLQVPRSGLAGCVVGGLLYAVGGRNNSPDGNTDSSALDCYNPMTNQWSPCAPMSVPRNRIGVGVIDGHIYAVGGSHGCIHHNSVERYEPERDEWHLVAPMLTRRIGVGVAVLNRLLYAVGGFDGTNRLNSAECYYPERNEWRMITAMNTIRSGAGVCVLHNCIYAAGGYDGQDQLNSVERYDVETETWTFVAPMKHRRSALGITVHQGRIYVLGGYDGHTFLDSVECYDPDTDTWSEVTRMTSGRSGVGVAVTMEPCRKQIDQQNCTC

Cc1cc2nc3c(=O)[nH]c(=O)[nH]c3nc2c([N+](=O)[O-])c1N
active: AC50 (Keap1/Nrf2) 1.78 µM | AC50 (HeLa) 150 µM | IC50 [1] 2.33 µM | AC50 (ORF 73) 3.99 µM | AC50 (Caspase-6) 4.58 µM | IC50 [6] 2.48 µM
inactive: IC50 [2] 50 µM | EC50 (HEK293 [3]) 32.1 µM | IC50 [4] 51.7 µM | IC50 [5] > 66 µM | EC50 (Insulin-degrading enzyme [7]) > 54.7 µM | IC50 (HEK293 [8]) > 89.3 µM | EC50 (Insulin-degrading enzyme [9]) > 54.7 µM

CCN(CC)CCNc1ccc(CO)c2oc3cc(Cl)ccc3c(=O)c12
active: IC50 [10] 19.8 µM | AC50 [11] 10.2 µM | CC50 (Vero) 16.7 µM | AC50 [15] 63.1 µM | AC50 [16] 12.5 µM
inactive: EC50 [12] > 91.2 µM | IC50 [13] 24 µM | EC50 [14] > 91.2 µM
